Assays:
[1] = system: Staphylococcus aureus (ATCC 6538); test: Anti-bacterial Minimum Inhibitory Concentration (MIC) Method, microbroth dilution; type: cell-based; details: Table 1, CAMHB, 37° C., 24 hours, pH 4.5-adjusted stock
Procedure: (§1) Anti-Bacterial and Anti-Fungal Minimum Inhibitory Concentration (MIC) Method Method: Microbroth Dilution Method (96-well format). Test item: […] Solvent: Sterile MilliQ water and 0.1 M Citrate Buffer pH 4.5 Media used: • Bacterial: Cation-Adjusted Mueller-Hinton Broth (CAMHB) • Fungi: RPMI-1640 […] Fungi: • Incubation Temperature: • 25° C. (Candida albicans) • 35° C. (Aspergillus brasiliensis) • Incubation Time: 48 hours • Inoculum Size: 5×10^4 cfu/mL • Strains: • Candida albicans (ATCC 10231) • Aspergillus brasiliensis (ATCC 16404) • End point: Inhibition of growth, Spectrophotometer Reading @ 600 nm • Reference standards: […] All solubilized and pH 4.5-adjusted test compounds were filter-sterilized before subjecting to MIC study. […] All the strains were inoculated on their respective agar medium and incubated under conditions/durations detailed above. • Preparation of inoculum: • The bacterial colony suspension in 0.85% saline was adjusted to 1 McFarland's standard using […] which was further diluted to 1:100 in CAMHB. The fungal suspension for inoculation was prepared in 0.85% saline from 6 days old culture (for mold, A. brasiliensis) and from 2 days old culture (for yeast, C. albicans) from Sabouraud Dextrose agar medium. […] Micro titer plates were prepared as per the CLSI recommendations. One hundred and seventy five microliters of Cation-adjusted Muller Hinton Broth (CAMHB) was added to the first column of a 96 well flat bottom plate, which is the media control. Second column is for the stocks of the test compounds and reference standards from which dilutions are made. Then 175 μL of CAMHB was added to the 5th, 8th and 11th columns, 75 μL of CAMHB to the 4th, 7th and 10th columns and 50 μL of CAMHB to the 3rd, 6th and 9th columns and the last column was the organism control.

[2] = system: Pseudomonas aeruginosa (ATCC 9027); test: as above; type: cell-based; details: Table 1, CAMHB, 37° C., 24 hours, pH 4.5-adjusted stock
Procedure: as §1

[3] = system: Burkholderia cepacia (ATCC 25416); test: as above; type: cell-based; details: Table 1, CAMHB, 37° C., 24 hours, pH 4.5-adjusted stock
Procedure: as §1

[4] = system: Escherichia coli (ATCC 8739); test: as above; type: cell-based; details: Table 1, CAMHB, 37° C., 24 hours, pH 4.5-adjusted stock
Procedure: as §1

[5] = system: Aspergillus brasiliensis (ATCC 16404); test: Anti-fungal Minimum Inhibitory Concentration (MIC) Method, microbroth dilution; type: cell-based; details: Table 1, RPMI-1640, 35° C., 48 hours, pH 4.5-adjusted stock
Procedure: (§2) Anti-Bacterial and Anti-Fungal Minimum Inhibitory Concentration (MIC) Method Method: Microbroth Dilution Method (96-well format). Test item: […] Solvent: Sterile MilliQ water and 0.1 M Citrate Buffer pH 4.5 Media used: • Bacterial: Cation-Adjusted Mueller-Hinton Broth (CAMHB) • Fungi: RPMI-1640 Fungi: • Incubation Temperature: • 25° C. (Candida albicans) • 35° C. (Aspergillus brasiliensis) • Incubation Time: 48 hours • Inoculum Size: 5×10^4 cfu/mL • Strains: • Candida albicans (ATCC 10231) • Aspergillus brasiliensis (ATCC 16404) • End point: Inhibition of growth, Spectrophotometer Reading @ 600 nm • Reference standards: […] All solubilized and pH 4.5-adjusted test compounds were filter-sterilized before subjecting to MIC study. […] All the strains were inoculated on their respective agar medium and incubated under conditions/durations detailed above. • Preparation of inoculum: • The bacterial colony suspension in 0.85% saline was adjusted to 1 McFarland's standard using […] which was further diluted to 1:100 in CAMHB. The fungal suspension for inoculation was prepared in 0.85% saline from 6 days old culture (for mold, A. brasiliensis) and from 2 days old culture (for yeast, C. albicans) from Sabouraud Dextrose agar medium. […] Micro titer plates were prepared as per the CLSI recommendations. One hundred and seventy five microliters of Cation-adjusted Muller Hinton Broth (CAMHB) was added to the first column of a 96 well flat bottom plate, which is the media control. Second column is for the stocks of the test compounds and reference standards from which dilutions are made. Then 175 μL of CAMHB was added to the 5th, 8th and 11th columns, 75 μL of CAMHB to the 4th, 7th and 10th columns and 50 μL of CAMHB to the 3rd, 6th and 9th columns and the last column was the organism control.

[6] = system: Candida albicans (ATCC 10231); test: as above; type: cell-based; details: Table 1, RPMI-1640, 25° C., 48 hours, pH 4.5-adjusted stock
Procedure: as §2

[7] = type: physicochemical; details: pH 4.5
Procedure: This water was used as a test media for determining the solubility of test/reference items. Stock solutions of concentration 1 mg/mL for test items/reference items was prepared in methanol. The stock solution will be used for preparation of calibration curve standards. Calibration curve of test/reference items was prepared by serially dilution consisting of 4-5-6 concentrations in 96 well format. […] The method was as follows: Calibration curve of test items were prepared by serial dilution consisting of 8 concentrations. […] Water, 50:50). […] 40 mg of test items were weighed into tubes. […] The initial pH of the solubility samples were recorded. […] Then, the solutions were observed visually for any precipitation. […] An aliquot of the supernatant were diluted with equal volume of methanol. […] The samples were then transferred to UV plate and scanned at λmax of that particular test/reference item. Compound #12 was transferred to auto-sampler vials and submitted for LC-MS/MS analysis.

[8] = Determination of Dissociation Constant (pKa) by Potentiometric Titration Method; type: physicochemical; details: ultrapure water, pH 4.5, Table 1, 0.1 mg/ml, 22° C.
Procedure: Potentiometric Titration Method: A calibrated pH meter was used for the assay. 50 mL solution of each test/reference item solution (0.1 mg/mL) was added to four beakers (two for acid titration and two for base titration). 0.1 N Sodium hydroxide (NaOH) solution was prepared as titrant solution. The pH electrode was placed into the beaker containing test/reference item solution. The initial pH of the solution will be recorded. 100 μL of 0.1 N NaOH was added successively with stirring and the pH at each addition was recorded. Base titrations were carried out individually in duplicates until a sudden shift in the pH was observed.

Compound: O=C(O)c1ccc(OCCO)cc1 [Compound 1, 4-(2-hydroxyethoxy) benzoic acid]
- MIC (%) S. Aureus [1]: 0.041%
- MIC (%) P. aeruginosa [2]: 0.082%
- MIC (%) B. cepacia [3]: 0.082%
- MIC (%) E. coli [4]: 0.165%
- MIC (%) A. brasiliensis [5]: >0.165%
- MIC (%) C. albicans [6]: >0.165%
- Solubility (wt %) [7]: 0.2779 wt %
- pKa [8]: 4.95

Compound: O=C(O)c1ccc(OCC(O)CO)cc1 (centres unmarked) [Compound 2, 4-(2,3-dihydroxypropoxy) benzoic acid]
- MIC (%) S. Aureus [1]: 0.045%
- MIC (%) P. aeruginosa [2]: 0.09%
- MIC (%) B. cepacia [3]: 0.09%
- MIC (%) E. coli [4]: 0.181%
- MIC (%) A. brasiliensis [5]: >0.181%
- MIC (%) C. albicans [6]: >0.181%
- Solubility (wt %) [7]: 0.343 wt %
- pKa [8]: 4.6

Compound: O=C(O)c1ccc(O[C@@H]2O[C@H](CO)[C@H](O)[C@H](O)[C@H]2O)cc1 [Compound 3, 4-{[(3R,4S,5R,6R)-3,4,5-trihydroxy-6-(hydroxymethyl)oxan-2-yl]oxy}benzoic acid]
- MIC (%) S. Aureus [1]: >0.87%
- MIC (%) S. Aureus ([1]; listed as #3): > 0.87%
- MIC (%) P. aeruginosa [2]: >0.87%
- MIC (%) P. aeruginosa ([2]; listed as #3): > 0.87%
- MIC (%) B. cepacia [3]: >0.87%
- MIC (%) B. cepacia ([3]; listed as #3): > 0.87%
- MIC (%) E. coli [4]: >0.87%
- MIC (%) E. coli ([4]; listed as #3): > 0.87%
- MIC (%) A. brasiliensis [5]: >0.87%
- MIC (%) A. brasiliensis ([5]; listed as #3): > 0.87%
- MIC (%) C. albicans [6]: >0.87%
- MIC (%) C. albicans ([6]; listed as #3): > 0.87%
- pKa [8]: 4.5

Compound: O=C(O)c1ccc(OC2OC(CO)C(O)C2O)cc1 (centres unmarked) [Compound 4, 4-{[3,4-dihydroxy-5-(hydroxymethyl)oxolan-2-yl]oxy}benzoic acid]
- MIC (%) S. Aureus [1]: 0.125%
- MIC (%) P. aeruginosa [2]: 0.5%
- MIC (%) B. cepacia [3]: 0.25%
- MIC (%) E. coli [4]: 1%
- MIC (%) A. brasiliensis [5]: >1%
- MIC (%) C. albicans [6]: >1%
- Solubility (wt %) [7]: >1.00 wt %
- pKa [8]: 4.6

Compound: O=C(O)c1ccc(OC2CC(O)C(CO)O2)cc1 (centres unmarked) [Compound 5, 4-{[4-hydroxy-5-(hydroxymethyl)oxolan-2-yl]oxy}benzoic acid]
- MIC (%) S. Aureus [1]: 0.017%
- MIC (%) P. aeruginosa [2]: 0.034%
- MIC (%) B. cepacia [3]: 0.034%
- MIC (%) E. coli [4]: >0.069%
- MIC (%) A. brasiliensis [5]: >0.069%
- MIC (%) C. albicans [6]: >0.069%
- Solubility (wt %) [7]: 0.11 wt %
- pKa [8]: 5.6

Compound: O=C(O)c1ccc(OCCCCO)cc1 [Compound 6, 4-(4-hydroxybutoxy) benzoic acid]
- MIC (%) S. Aureus [1]: 0.01%
- MIC (%) P. aeruginosa [2]: 0.04%
- MIC (%) B. cepacia [3]: 0.02%
- MIC (%) E. coli [4]: 0.04%
- MIC (%) A. brasiliensis [5]: >0.04%
- MIC (%) C. albicans [6]: >0.04%
- Solubility (wt %) [7]: 0.0667 wt %
- pKa [8]: 4.6

From US11252960B2 (KIMBERLY-CLARK WORLDWIDE, INC., priority 2017, dated 2022)
